# Data reported in PubChem BioAssay AID493202 (Sanford-Burnham Center for Chemical Genomics, 2011).
# Calls of active or inactive are those of the source.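 The calls were made as follows: active = mean EC50 below 10 µM; inactive = the rest.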
# Molecular target: Type-1 angiotensin II receptor (Homo sapiens) (UniProt P30556)
# Experiment: AT1 receptor agonists, beta-arrestin recruitment, SAR follow-up, selectivity assay for APJ agonist project, cell-based, CHO-K1 PathHunter, luminescence, set 4 (AID 493202)
# Settings: CHO-K1 AGTR1 PathHunter beta-arrestin, 90 min
# Chain of Type-1 angiotensin II receptor (Homo sapiens) (P30556 whole entry, looked up): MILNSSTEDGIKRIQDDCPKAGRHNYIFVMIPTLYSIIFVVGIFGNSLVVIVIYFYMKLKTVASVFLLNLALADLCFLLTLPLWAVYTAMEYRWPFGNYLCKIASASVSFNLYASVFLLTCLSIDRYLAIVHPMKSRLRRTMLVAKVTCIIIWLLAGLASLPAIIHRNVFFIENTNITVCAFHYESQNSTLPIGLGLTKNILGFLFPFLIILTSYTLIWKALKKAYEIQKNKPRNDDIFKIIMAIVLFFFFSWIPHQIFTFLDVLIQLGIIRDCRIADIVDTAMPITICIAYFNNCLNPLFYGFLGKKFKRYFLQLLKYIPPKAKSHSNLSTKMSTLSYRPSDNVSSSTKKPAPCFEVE
row,EC50,SMILES
1,> 79 µM (inactive),Cc1cc(O)c(C(C)C)cc1NS(=O)(=O)c1ccccc1
2,> 79 µM (inactive),CC1=CC(=O)C(C(C)C)=C/C1=N/OS(=O)(=O)c1ccc(OC(F)(F)F)cc1
3,> 79 µM (inactive),CC1=CC(=O)C(C(C)C)=C/C1=N/OS(=O)(=O)c1cccnc1
4,> 79 µM (inactive),CC1=CC(=O)C(C(C)C)=C/C1=N/OS(=O)(=O)c1ccc(C(F)(F)F)cc1
5,> 79 µM (inactive),CC1=CC(=O)C(C(C)C)=C/C1=N/OS(=O)(=O)c1ccc(C(C)(C)C)cc1
6,> 79 µM (inactive),COC(=O)c1cc(NS(=O)(=O)c2ccccc2)ccc1O
7,> 79 µM (inactive),O=S(=O)(Nc1cc(Cl)c(O)c(Cl)c1)c1ccccc1
